The test system of one data set is C57 mice. The experiment in a line: Reversal of THC-induced hypolocomotion in mice. It counts as in vivo. The following applies: 30 min pre-test. The procedure: Reversal of THC-induced hypolocomotion in mice: Six C57 mice (Charles River, Wilmington, MA) were administered […] (THC) 3 mg/kg ip, 10 min pre-test. […] In this apparatus, four qualitatively different measures of locomotor activity are automatically scored. […] The magnitude of the effect is similar to that elicited by rimonabant given at 3 mg/kg po, and given 30 min pre-test.

For a further data set, the system named is rat. The experiment in a line: Repeated dose (28 day) toxicity study in rat. The data set is classed as in vivo. The following applies: repeated dose 28 day. The procedure:
Repeated dose (28 day) toxicity studies were conducted using ANEB-001 in two species, rat and primate, selected on the basis of acceptable bioavailability and comparison of metabolite profiles with those in human liver microsomes.

For `CC(C)(C)NC(=O)N1CC(O[C@H](c2ccc(Cl)cc2)c2ccccc2C(F)(F)F)C1` [ANEB-001, 3-[(R)-2-(trifluoromethyl)-4′-chlorobenzhydryloxy]-N-(tert-butyl)azetidine-1-carboxamide], in the data set with C57 mice (30 mg/kg orally, THC 3 mg/kg ip 10 min pre-test, 15 min in locomotor activity cages), the “action of THC on the total active time parameter of locomotor measures” value is “significantly reversed”. The “findings at dose levels of 75 mg/kg/day” value with rat (75 mg/kg/day) was “hepatic changes consistent with an adaptive response”. The “no observed adverse effect level” value in the data set on rat (highest dose tested) was 75 mg/kg/day.

Take `Cc1c(C(=O)NN2CCCCC2)nn(-c2ccc(Cl)cc2Cl)c1-c1ccc(Cl)cc1` [rimonabant, reference compound]: in the data set with C57 mice (3 mg/kg po), the “magnitude of the effect on THC-induced hypolocomotion (compared with ANEB-001)” value is “similar”.

Source of the values: US20240000748A1, “FORMULATIONS AND METHODS FOR TREATING ACUTE CANNABINOID OVERDOSE” (Anebulo Pharmaceuticals, Inc., priority 2020, published 2024).
